Reference: patent US20250340561A1, “QUINAZOLINE COMPOUND FOR INDUCING DEGRADATION OF G12D MUTANT KRAS PROTEIN” (Astellas Pharma Inc., priority 2021, published 2025)

Molecular target: T1, KRAS G12D (Homo sapiens, UniProt P01116, G12D)
T1 construct: host or cells: AsPC-1 human pancreatic cancer cells
Assay: Test Example 1-2: KRAS degradation action in AsPC-1, Cell ELISA
Assay type: cell-based
Details: AsPC-1 cells, overnight treatment, corrected with β-actin, 0% = 10 μM Example No. 26 (Example No. 8 for Example Nos. 74 and 75)
Protocol: Test Example 1-2: Evaluation of KRAS Degradation Action on Human G12D Mutant KRAS-Positive Pancreatic Cancer Line AsPC-1
The KRAS degradation action of test compounds was evaluated by measuring the expression levels of KRAS G12D by Cell ELISA.
[…] As for the cell culture conditions, a RPMI 1640 medium containing 10% fetal bovine serum was used in the presence of 5% CO2 at 37° C. The next day, the test compounds (10 points having final concentrations in the range of 10 μM to 0.3 nM), the compound of Example No. 26 (Example No. 8 for Example Nos. 74 and 75) of a final concentration of 10 μM as a positive control and DMSO, which was the solvent for the test compounds, as a negative control were diluted 500-fold with a fresh medium and were added at 20 μL per well. The cells were cultured overnight.
The next day, the culture supernatant was removed, and 4% paraformaldehyde phosphate buffer (from FUJIFILM Wako Pure Chemical Corporation) was added at 20 μL per well. The plate was allowed to stand for 30 minutes at room temperature to thus immobilize the cells. Then, the supernatant was removed, and 0.1% Triton X-100 (from Amersham Biosciences)-containing PBS was added at 20 μL per well. After allowing to stand for 10 minutes at room temperature, the supernatant was removed. PBS was added at 25 μL per well, and the supernatant was removed to thus wash each well. The washing was performed twice in total. Next, the supernatant was removed, and 0.5% sodium dodecyl sulfate (SDS; from Invitrogen)-containing PBS was added at 20 μL per well. After allowing to stand at room temperature for 10 minutes, the supernatant was removed by centrifugation (using a centrifugal dehydrator machine, the supernatant was removed by the same method hereinafter). PBS was added at 25 μL per well, and the supernatant was removed to thus wash each well. The washing was performed twice in total. The supernatant was removed by centrifugation, and a blocking solution (Intercept Blocking Buffer) was added at 20 μL per well. After allowing to stand for 30 minutes at room temperature, the supernatant was removed by centrifugation, and a solution obtained by diluting an anti-Ras (G12D Mutant Specific) antibody and an anti-3-actin antibody 1,000-fold with a blocking solution was added at 20 μL per well as a primary antibody. The plate was allowed to stand overnight at 4° C.
The next day, the plate was centrifuged to remove the supernatant. PBS was added at […], and the supernatant was removed to thus wash each well. The washing was performed twice in total. The supernatant was removed by centrifugation, and a solution obtained by diluting Donkey anti-Mouse IgG H&L (TRDye 680RD) (from Li—COR Biosciences) and Goat anti-Rabbit IgG H&L (IRDye 800CW) (from Li—COR Biosciences) 1,000-fold with a blocking solution was added at 20 μL per well as a secondary antibody. After allowing to stand for 1 hour at room temperature, the supernatant was removed. PBS was added at 25 μL per well, and the supernatant was removed to thus wash each well. The washing was performed twice in total. After removing the supernatant by centrifuging the plate, the plate was dried as it was with air at room temperature for 2 hours or more, and the 700-nm and 800-nm fluorescent signals were measured with Aerius (from LI-COR Biosciences).
With the signaling value at the time of addition of DMSO corrected with the signaling value of β-actin taken as 100% and with the signaling value at the time of addition of 10 μM of the compound of Example No. 26 taken as 0%, the 50% degradation values (DC50) of the amounts of KRAS were calculated by Sigmoid-Emax model nonlinear regression analysis. The molecular weights of the test compounds were calculated as the molecular weights of the trihydrochloride for Example No. 30, the tetrahydrochloride for Example No. 46 and the free forms forming no salt for the remaining Example Nos. The results for some test compounds of the formula (I) are shown in Table 2.

T1 sequence (P01116 1-188 isoform P01116-2 G12D): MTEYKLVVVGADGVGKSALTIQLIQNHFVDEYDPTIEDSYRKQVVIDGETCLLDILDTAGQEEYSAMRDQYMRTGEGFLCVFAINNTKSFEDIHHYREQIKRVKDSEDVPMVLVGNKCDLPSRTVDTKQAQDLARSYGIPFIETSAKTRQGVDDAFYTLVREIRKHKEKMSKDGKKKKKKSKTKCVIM

| Structure (SMILES) | DC50 [nM] |
| --- | --- |
| Cc1c(F)cc2[nH]ncc2c1-c1c(C2CC2)cc2c(N3C[C@@H]4C[C@H]3CN4)nc(OC3CCOCC3)nc2c1OCc1ccc(-c2cn([C@H](C(=O)N3C[C@H](O)C[C@H]3C(=O)N[C@@H](CO)c3cccc(S(C)(=O)=O)c3)C(C)C)nn2)cc1 [Example 67] | 840 |
| Cc1ncsc1-c1ccc([C@H](CO)NC(=O)[C@@H]2C[C@@H](O)CN2C(=O)[C@H](C(C)C)n2cc(-c3ccc(COc4c(-c5c(C)c(F)cc6[nH]ncc56)c(C5CC5)cc5c(N6C[C@@H]7C[C@H]6CN7)nc(OC[C@@H]6CCCN6C)nc45)cc3)nn2)cc1 [Example 57] | 134 |
| Cc1ncsc1-c1ccc([C@H](CO)NC(=O)[C@@H]2C[C@@H](O)CN2C(=O)[C@H](C(C)C)n2cc(-c3ccc(COc4c(-c5c(C)c(F)cc6[nH]ncc56)c(C5CC5)cc5c(N6C[C@@H]7C[C@H]6CN7)nc(OCC6(CO)CCOCC6)nc45)cc3)nn2)cc1 (atropisomer, axis not shown) [Example 36] | 17 |
| Cc1ncsc1-c1ccc([C@H](CO)NC(=O)[C@@H]2C[C@@H](O)CN2C(=O)[C@H](C(C)C)n2cc(-c3ccc(COc4c(-c5c(C)c(F)cc6[nH]ncc56)c(C5CC5)cc5c(N6C[C@@H]7C[C@H]6CN7)nc(O[C@H](C)CN6CCOCC6)nc45)cc3)nn2)cc1 [Example 45] | 15 |
| Cc1ncsc1-c1ccc([C@H](CO)NC(=O)[C@@H]2C[C@@H](O)CN2C(=O)[C@H](C(C)C)n2cc(-c3ccc(COc4c(-c5c(C)c(F)cc6[nH]ncc56)c(C5CC5)cc5c(N6C[C@@H]7C[C@H]6CN7)nc(O[C@@H](C)[C@H](C)O)nc45)cc3)nn2)cc1 [Example 42] | 6 |
| CC[C@@H](C)Oc1nc(N2C[C@@H]3C[C@H]2CN3)c2cc(C3CC3)c(-c3c(C)c(F)cc4[nH]ncc34)c(OCc3ccc(-c4cn([C@H](C(=O)N5C[C@H](O)C[C@H]5C(=O)N[C@@H](CO)c5ccc(-c6scnc6C)cc5)C(C)C)nn4)cc3)c2n1 [Example 43] | 10 |
| CO[C@H](C)COc1nc(N2C[C@@H]3C[C@H]2CN3)c2cc(C3CC3)c(-c3c(C)c(F)cc4[nH]ncc34)c(OCc3ccc(-c4cn([C@H](C(=O)N5C[C@H](O)C[C@H]5C(=O)N[C@@H](CO)c5ccc(-c6scnc6C)cc5)C(C)C)nn4)cc3)c2n1 [Example 47] | 13 |
| Cc1ncsc1-c1ccc([C@H](CO)NC(=O)[C@@H]2C[C@@H](O)CN2C(=O)[C@H](C(C)C)n2cc(-c3ccc(COc4c(-c5c(C)c(F)cc6[nH]ncc56)c(C5CC5)cc5c(N6C[C@@H]7C[C@H]6CN7)nc(OC[C@H]6CCOC6)nc45)cc3)nn2)cc1 [Example 51] | 11 |
| Cc1ncoc1-c1ccc([C@H](CO)NC(=O)[C@@H]2C[C@@H](O)CN2C(=O)[C@H](C(C)C)n2cc(-c3ccc(COc4c(-c5c(C)c(F)cc6[nH]ncc56)c(C5CC5)cc5c(N6C[C@@H]7C[C@H]6CN7)nc(OC6CCOCC6)nc45)cc3)nn2)cc1 [Example 38] | 53 |
| Cc1ncsc1-c1ccc([C@H](CO)NC(=O)[C@@H]2C[C@@H](O)CN2C(=O)[C@H](C(C)C)n2cc(-c3ccc(COc4c(-c5c(C)c(F)cc6[nH]ncc56)c(C5CC5)cc5c(N6C[C@@H]7C[C@H]6CN7)nc(OCC6(CO)CC6)nc45)cc3)nn2)cc1 [Example 61] | 21 |
| Cc1ncsc1-c1ccc([C@H](CO)NC(=O)[C@@H]2C[C@@H](O)CN2C(=O)[C@H](C(C)C)n2cc(-c3ccc(COc4c(-c5c(C)c(F)cc6[nH]ncc56)c(C5CC5)cc5c(N6C[C@@H]7C[C@H]6CN7)nc(OCC67CCCN6CCC7)nc45)cc3)nn2)cc1 [Example 44] | 111 |
| CO[C@@H](C)COc1nc(N2C[C@@H]3C[C@H]2CN3)c2cc(C3CC3)c(-c3c(C)c(F)cc4[nH]ncc34)c(OCc3ccc(-c4cn([C@H](C(=O)N5C[C@H](O)C[C@H]5C(=O)N[C@@H](CO)c5ccc(F)cc5)C(C)C)nn4)cc3)c2n1 [Example 58] | 37 |
| Cc1ncsc1-c1ccc([C@H](CO)NC(=O)[C@@H]2C[C@@H](O)CN2C(=O)[C@H](C(C)C)n2cc(-c3ccc(COc4c(-c5c(C)c(F)cc6[nH]ncc56)c(C5CC5)cc5c(N6C[C@@H]7C[C@H]6CN7)nc(O[C@H]6CCN(CC(F)F)C6)nc45)cc3)nn2)cc1 [Example 33] | 30 |
| Cc1ncsc1-c1ccc([C@H](CO)NC(=O)[C@@H]2C[C@@H](O)CN2C(=O)[C@H](C(C)C)n2cc(-c3ccc(COc4c(-c5c(C)c(F)cc6[nH]ncc56)c(C5CC5)cc5c(N6C[C@@H]7C[C@H]6CN7)nc(OC[C@@H]6CCOC6)nc45)cc3)nn2)cc1 [Example 50] | 11 |
| CO[C@@H](C)COc1nc(N2C[C@@H]3C[C@H]2CN3)c2cc(C3CC3)c(-c3c(C)c(F)cc4[nH]ncc34)c(OCc3ccc(-c4cn([C@H](C(=O)N5C[C@H](O)C[C@H]5C(=O)N[C@@H](CO)c5ccc(-c6ocnc6C)cc5)C(C)C)nn4)cc3)c2n1 [Example 72] | 16 |
| COC[C@@H](C)Oc1nc(N2C[C@@H]3C[C@H]2CN3)c2cc(C3CC3)c(-c3c(C)c(F)cc4[nH]ncc34)c(OCc3ccc(-c4cn([C@H](C(=O)N5C[C@H](O)C[C@H]5C(=O)N[C@@H](CO)c5ccc(-c6scnc6C)cc5)C(C)C)nn4)cc3)c2n1 [Example 40] | 5 |
| Cc1ncsc1-c1ccc([C@H](CO)NC(=O)[C@@H]2C[C@@H](O)CN2C(=O)[C@H](C(C)C)n2cc(-c3ccc(COc4c(-c5c(C)c(F)cc6[nH]ncc56)c(C5CC5)cc5c(N6C[C@@H]7C[C@H]6CN7)nc(OC[C@@H]6CCOC6)nc45)cc3)nn2)cc1 [Example 53] | 8 |
| Cc1ncsc1-c1ccc([C@H](CO)NC(=O)[C@@H]2C[C@@H](O)CN2C(=O)[C@H](C(C)C)n2cc(-c3ccc(COc4c(-c5c(C)c(F)cc6[nH]ncc56)c(C5CC5)cc5c(N6C[C@@H]7C[C@H]6CN7)nc(OC[C@H]6CCCN6C)nc45)cc3)nn2)cc1 [Example 60] | 102 |
| Cc1ncsc1-c1ccc([C@H](CO)NC(=O)[C@@H]2C[C@@H](O)CN2C(=O)[C@H](C(C)C)n2cc(-c3ccc(COc4c(-c5c(C)c(F)cc6[nH]ncc56)c(C5CC5)cc5c(N6C[C@@H]7C[C@H]6CN7)nc(O[C@H](C)CN(C)C)nc45)cc3)nn2)cc1 [Example 46] | 37 |
| COC[C@H](CN1CCOCC1)Oc1nc(N2C[C@@H]3C[C@H]2CN3)c2cc(C3CC3)c(-c3c(C)c(F)cc4[nH]ncc34)c(OCc3ccc(-c4cn([C@H](C(=O)N5C[C@H](O)C[C@H]5C(=O)N[C@@H](CO)c5ccc(-c6scnc6C)cc5)C(C)C)nn4)cc3)c2n1 [Example 55] | 24 |
| CO[C@@H](C)COc1nc(N2C[C@@H]3C[C@H]2CN3)c2cc(C3CC3)c(-c3c(C)c(F)cc4[nH]ncc34)c(OCc3ccc(-c4cn([C@H](C(=O)N5C[C@H](O)C[C@H]5C(=O)N[C@@H](CO)c5ccc(N6CCOC6=O)cc5)C(C)C)nn4)cc3)c2n1 [Example 59] | 45 |
| COCC1(COc2nc(N3C[C@@H]4C[C@H]3CN4)c3cc(C4CC4)c(-c4c(C)c(F)cc5[nH]ncc45)c(OCc4ccc(-c5cn([C@H](C(=O)N6C[C@H](O)C[C@H]6C(=O)N[C@@H](CO)c6ccc(-c7scnc7C)cc6)C(C)C)nn5)cc4)c3n2)CC1 [Example 62] | 10 |
| Cc1ncsc1-c1ccc([C@H](CO)NC(=O)[C@@H]2C[C@@H](O)CN2C(=O)[C@H](C(C)C)n2cc(-c3ccc(COc4c(-c5c(C)c(F)cc6[nH]ncc56)c(C5CC5)cc5c(N6C[C@@H]7C[C@H]6CN7)nc(O[C@H](C)[C@@H](C)O)nc45)cc3)nn2)cc1 (atropisomer, axis not shown) [Example 37] | 25 |
| CO[C@@H](C)COc1nc(N2C[C@@H]3C[C@H]2CN3)c2cc(C3CC3)c(-c3c(C)c(F)cc4[nH]ncc34)c(OCc3ccc(-c4cn([C@H](C(=O)N5C[C@H](O)C[C@H]5C(=O)N[C@@H](CO)c5ccc(-c6scnc6C)cc5)C(C)C)nn4)cc3)c2n1 [Example 48] | 4 |
